The nature of the assay: Inhibition of NHE1-mediated rat platelet swelling.

In BindingDB's records for doi:10.1016/j.bmcl.2009.04.079 (China Pharmaceutical University, 2009) one finds IC50 data, which are given here for eleven compounds.

SMILES strings stand for the structures. Structures can show the parent of a compound that is named as a salt.

Consider `COc1ccc(CN2CCN(Cc3cccc(C(=O)NC(=N)N)c3)CC2)c(OC)c1OC` [N-(diaminomethylene)-3-((4-(2,3,4-trimethoxybenzyl)piperazin-1-yl)methyl)benzamide hydrochloride], for which the midpoint of inhibition, the IC50, lay at 36.5 nM.

Regarding `COc1ccc(CN2CCN(Cc3ccccc3C(=O)NC(=N)N)CC2)c(OC)c1OC` [N-(diaminomethylene)-2-((4-(2,3,4-trimethoxybenzyl)piperazin-1-yl)methyl)benzamide hydrochloride], half-maximal inhibition (IC50) was put at 11.1 nM.

In the case of `CNS(=O)(=O)c1cc(C(=O)NC(=N)N)ccc1CN1CCN(Cc2ccc(OC)c(OC)c2OC)CC1` [N-(diaminomethylene)-3-(N-methylsulfamoyl)-4-((4-(2,3,4-trimethoxybenzyl)piperazin-1-yl)methyl)benzamide hydrochloride], the IC50 (usually the concentration that gives 50% inhibition) worked out at 15 nM.

`COc1ccc(CN2CCN(Cc3ccc(C(=O)NC(=N)N)cc3)CC2)c(OC)c1OC` [N-(diaminomethylene)-4-((4-(2,3,4-trimethoxybenzyl)piperazin-1-yl)methyl)benzamide hydrochloride]: it took 36.4 nM to reach half-maximal inhibition (IC50).

`COc1ccc(CN2CCN(C(C)c3ccc(C(=O)NC(=N)N)cc3[N+](=O)[O-])CC2)c(OC)c1OC` (stereo unspecified) [N-(diaminomethylene)-3-nitro-4-(1-(4-(2,3,4-trimethoxybenzyl)piperazin-1-yl)ethyl)benzamide hydrochloride] came in with an IC50 of 18.7 nM.

Regarding `COc1ccc(CN2CCN(C(C)c3ccc(C(=O)NC(=N)N)cc3)CC2)c(OC)c1OC` (stereo unspecified) [N-(diaminomethylene)-4-(1-(4-(2,3,4-trimethoxybenzyl)piperazin-1-yl)ethyl)benzamide hydrochloride], inhibition was half-maximal at 40.5 nM (IC50).

In the case of `COc1ccc(CN2CCN(Cc3ccc(C(=O)NC(=N)N)cc3Br)CC2)c(OC)c1OC` [3-bromo-N-(diaminomethylene)-4-((4-(2,3,4-trimethoxybenzyl)piperazin-1-yl)methyl)benzamide hydrochloride], the IC50 is 248 nM.

In turn, `COc1ccc(CN2CCN(Cc3cc(C(=O)NC(=N)N)ccc3[N+](=O)[O-])CC2)c(OC)c1OC` [N-(diaminomethylene)-4-nitro-3-((4-(2,3,4-trimethoxybenzyl)piperazin-1-yl)methyl)benzamide hydrochloride] yielded an IC50 of 14.2 nM.

Compound `COc1ccc(CN2CCN(Cc3ccc(C(=O)NC(=N)N)cc3S(N)(=O)=O)CC2)c(OC)c1OC` [N-(diaminomethylene)-3-sulfamoyl-4-((4-(2,3,4-trimethoxybenzyl)piperazin-1-yl)methyl)benzamide hydrochloride] returned an IC50 of 11.5 nM.

`COc1ccc(CN2CCN(Cc3ccc(C(=O)NC(=N)N)cc3[N+](=O)[O-])CC2)c(OC)c1OC` had an IC50 of 3.6 nM.

As to `CCCNS(=O)(=O)c1cc(C(=O)NC(=N)N)ccc1CN1CCN(Cc2ccc(OC)c(OC)c2OC)CC1` [N-(diaminomethylene)-3-(N-propylsulfamoyl)-4-((4-(2,3,4-trimethoxybenzyl)piperazin-1-yl)methyl)benzamide hydrochloride], half-maximal inhibition (IC50) was put at 1150 nM.
